Patent US8338380B2, “Use of the peptide RFMWMR as a therapeutic agent” (priority 2007, dated 2012)

Test system: drug-resistant Mycobacterium tuberculosis
Conditions: 5 micrograms per ml

Ac-RFMWMR-NH2 [Ac-Arg-Phe-Met-Trp-Met-Arg-NH2]
% inhibition: 100.0%
